Data published in ChEMBL document CHEMBL5053549, “Discovery of Potent and Novel Dual PARP/BRD4 Inhibitors for Efficient Treatment of Pancreatic Cancer” (J Med Chem, 2021).
Active and inactive are the calls of the source. The calls are words filed in the database; no cut-off is given here.

Key:
SW1990 [1] = test: Inhibition of homologous recombinant repair in human SW1990 cells assessed as reduction in FOXM1 expression at 6 uM after 4 days by Q-PCR analysis; assay type: functional, cell-based; conditions: time 4.0 day
Mus musculus [2] = test: In vivo inhibition of BRD4 expression in human […] cells xenografted in BALB/c mouse at 45 mg/kg, ip administered for 28 consecutive days by Q-PCR analysis; assay type: functional, organism-based; conditions: time 28.0 day
SW1990 [3] = test: Inhibition of homologous recombinant repair in human SW1990 cells assessed as reduction in Rad51 expression at 6 uM after 4 days by Western blot analysis; assay type: functional, cell-based; conditions: time 4.0 day
[4] = target: T1, Bromodomain-containing protein 4 (Homo sapiens, UniProt O60885); test: Inhibition of BRD4 expression in human SW1990 cells at 6 uM after 4 days by Q-PCR analysis; assay type: cell-based; conditions: time 4.0 day
Mus musculus [5] = test: In vivo inhibition of PARP1 expression in human […] cells xenografted in BALB/c mouse at 45 mg/kg, ip administered for 28 consecutive days by Q-PCR analysis; assay type: functional, organism-based; conditions: time 28.0 day
SW1990 [6] = test: Antiproliferative activity against human SW1990 cells assessed as reduction in cell viability after 4 days by MTT assay; assay type: functional, cell-based; conditions: SW1990, 96 h
SW1990 [7] = test: Effect on cell cycle progression in human SW1990 cells assessed as reduction in PLK1 expression at 6 uM after 4 days by Q-PCR analysis; assay type: functional, cell-based; conditions: time 4.0 day
SW1990 [8] = test: Inhibition of homologous recombinant repair in human SW1990 cells assessed as reduction in BRCA1 expression at 6 uM after 4 days by Western blot analysis; assay type: functional, cell-based; conditions: time 4.0 day
SW1990 [9] = test: Induction of DNA damage in human SW1990 cells assessed as increase in gammaH2AX at 6 uM incubated for 4 days by immunofluorescence assay; assay type: functional, cell-based; conditions: time 4.0 day
SW1990 [10] = test: Induction of autophagy in human SW1990 cells assessed as reduction in p62 expression at 6 uM incubated for 4 days by immunofluorescence assay; assay type: functional, cell-based; conditions: time 4.0 day
Mus musculus [11] = test: In vivo inhibition of PARP1 expression in human […] cells xenografted in BALB/c mouse at 45 mg/kg, ip administered for 28 consecutive days by Western blot analysis; assay type: functional, organism-based; conditions: time 28.0 day
Mus musculus [12] = test: Effect on cell cycle progression in human SW1990 cells xenografted in BALB/c mouse assessed as reduction in CCND1 expression at 45 mg/kg, ip after 4 days by Western blot analysis; assay type: functional, organism-based; conditions: time 4.0 day
SW1990 [13] = test: Inhibition of homologous recombinant repair in human SW1990 cells assessed as reduction in BRCA1 expression at 6 uM after 4 days by Q-PCR analysis; assay type: functional, cell-based; conditions: time 4.0 day
Mus musculus [14] = test: In vivo inhibition of PARP1 expression in human […] cells xenografted in BALB/c mouse at 45 mg/kg, ip administered for 28 consecutive days by immunohistochemical analysis; assay type: functional, organism-based; conditions: time 28.0 day
Mus musculus [15] = test: Effect on cell cycle progression in human SW1990 cells xenografted in BALB/c mouse assessed as reduction in PLK1 expression at 45 mg/kg, ip after 4 days by Western blot analysis; assay type: functional, organism-based; conditions: time 4.0 day
SW1990 [16] = test: Effect on cell cycle progression in human SW1990 cells assessed as reduction in PLK1 expression at 6 uM after 4 days by Western blot analysis; assay type: functional, cell-based; conditions: time 4.0 day
MDA-MB-231 = test: Antiproliferative activity against human MDA-MB-231 cells assessed as reduction in cell viability after 7 days; assay type: functional, cell-based; conditions: MDA-MB-231, 168 h
Mus musculus [17] = test: Toxicity in BALB/c mouse xenografted with human SW1990 cells assessed as liver damage at 45 mg/kg, ip administered for 28 consecutive days by H and E staining based […] microscopic analysis; assay type: organism-based; conditions: in vivo, 672 h, time 28 day
Mus musculus [18] = test: In vivo inhibition of BRD4 expression in human […] cells xenografted in BALB/c mouse at 45 mg/kg, ip administered for 28 consecutive days by Western blot analysis; assay type: functional, organism-based; conditions: time 28.0 day
Mus musculus [19] = test: Effect on cell cycle progression in human SW1990 cells xenografted in BALB/c mouse assessed as reduction in CCND1 expression at 45 mg/kg, ip after 4 days by Q-PCR analysis; assay type: functional, organism-based; conditions: time 4.0 day
SW1990 [20] = test: Inhibition of homologous recombinant repair in human SW1990 cells assessed as reduction in Rad51 expression at 6 uM after 4 days by Q-PCR analysis; assay type: functional, cell-based; conditions: time 4.0 day
Mus musculus [21] = test: Toxicity in BALB/c mouse xenografted with human SW1990 cells assessed as kidney damage at 45 mg/kg, ip administered for 28 consecutive days by H and E staining based […] microscopic analysis; assay type: organism-based; conditions: in vivo, 672 h, time 28 day
Mus musculus [22] = test: Toxicity in BALB/c mouse xenografted with human SW1990 cells assessed as effect on body weight at 45 mg/kg, ip administered for 28 consecutive days; assay type: organism-based; conditions: in vivo, 672 h, time 28 day
CFPAC-1 = test: Antiproliferative activity against human CFPAC-1 cells assessed as reduction in cell viability after 4 days by MTT assay; assay type: functional, cell-based; conditions: CFPAC-1, 96 h
SW1990 [23] = test: Effect on cell cycle progression in human SW1990 cells assessed as reduction in CDK6 expression at 6 uM after 4 days by Q-PCR analysis; assay type: functional, cell-based; conditions: time 4.0 day
Mus musculus [24] = test: Toxicity in BALB/c mouse xenografted with human SW1990 cells assessed as lung damage at 45 mg/kg, ip administered for 28 consecutive days by H and E staining based […] microscopic analysis; assay type: organism-based; conditions: in vivo, 672 h, time 28 day
SW1990 [25] = test: Induction of DNA damage in human SW1990 cells assessed as tail DNA at 6 uM incubated for 4 days by comet assay; assay type: functional, cell-based; conditions: time 4.0 day
SW1990 [26] = test: Induction of autophagy in human SW1990 cells assessed as increase in LC3B expression at 6 uM incubated for 4 days by immunofluorescence assay; assay type: functional, cell-based; conditions: time 4.0 day
Mus musculus [27] = test: Toxicity in BALB/c mouse xenografted with human SW1990 cells assessed as heart damage at 45 mg/kg, ip administered for 28 consecutive days by H and E staining based […] microscopic analysis; assay type: organism-based; conditions: in vivo, 672 h, time 28 day
Mus musculus [28] = test: Toxicity in BALB/c mouse xenografted with human SW1990 cells assessed as spleen damage at 45 mg/kg, ip administered for 28 consecutive days by H and E staining based […] microscopic analysis; assay type: organism-based; conditions: in vivo, 672 h, time 28 day
Mus musculus [29] = test: In vivo inhibition of BRD4 expression in human […] cells xenografted in BALB/c mouse at 45 mg/kg, ip administered for 28 consecutive days by immunohistochemical analysis; assay type: functional, organism-based; conditions: time 28.0 day
Mus musculus [30] = test: Effect on cell cycle progression in human SW1990 cells xenografted in BALB/c mouse assessed as reduction in CDK6 expression at 45 mg/kg, ip after 4 days by Western blot analysis; assay type: functional, organism-based; conditions: time 4.0 day
[31] = target: T1, Bromodomain-containing protein 4; test: Inhibition of BRD4 expression in human SW1990 cells at 6 uM after 4 days by Western blot analysis; assay type: cell-based; conditions: time 4.0 day
SW1990 [32] = test: Effect on cell cycle progression in human SW1990 cells assessed as reduction in CDK6 expression at 6 uM after 4 days by Western blot analysis; assay type: functional, cell-based; conditions: time 4.0 day
Mus musculus [33] = test: Effect on cell cycle progression in human SW1990 cells xenografted in BALB/c mouse assessed as reduction in CDK6 expression at 45 mg/kg, ip after 4 days by Q-PCR analysis; assay type: functional, organism-based; conditions: time 4.0 day
Mus musculus [34] = test: Effect on cell cycle progression in human SW1990 cells xenografted in BALB/c mouse assessed as reduction in PLK1 expression at 45 mg/kg, ip after 4 days by Q-PCR analysis; assay type: functional, organism-based; conditions: time 4.0 day
SW1990 [35] = test: Effect on cell cycle progression in human SW1990 cells assessed as reduction in CCND1 expression at 6 uM after 4 days by Western blot analysis; assay type: functional, cell-based; conditions: time 4.0 day
SW1990 [36] = test: Effect on cell cycle progression in human SW1990 cells assessed as reduction in CCND1 expression at 6 uM after 4 days by Q-PCR analysis; assay type: functional, cell-based; conditions: time 4.0 day
CAPAN-1 = test: Antiproliferative activity against human CAPAN-1 cells assessed as reduction in cell viability after 4 days by MTT assay; assay type: functional, cell-based; conditions: CAPAN-1, 96 h
[37] = target: T1, Bromodomain-containing protein 4; test: Inhibition of recombinant BRD4 (unknown origin) incubated for 120 mins by TR-FRET assay
[38] = target: Poly [ADP-ribose] polymerase 1 (Homo sapiens, UniProt P09874); test: Inhibition of PARP1 (unknown origin) incubated for 45 mins in presence of biotinylated-NAD+ by microplate reader analysis
[39] = target: T1, Bromodomain-containing protein 4; test: Inhibition of recombinant BRD4 (unknown origin) at 0.5 uM incubated for 120 mins by TR-FRET assay relative to control

Chain of Poly [ADP-ribose] polymerase 1 (P09874 whole entry): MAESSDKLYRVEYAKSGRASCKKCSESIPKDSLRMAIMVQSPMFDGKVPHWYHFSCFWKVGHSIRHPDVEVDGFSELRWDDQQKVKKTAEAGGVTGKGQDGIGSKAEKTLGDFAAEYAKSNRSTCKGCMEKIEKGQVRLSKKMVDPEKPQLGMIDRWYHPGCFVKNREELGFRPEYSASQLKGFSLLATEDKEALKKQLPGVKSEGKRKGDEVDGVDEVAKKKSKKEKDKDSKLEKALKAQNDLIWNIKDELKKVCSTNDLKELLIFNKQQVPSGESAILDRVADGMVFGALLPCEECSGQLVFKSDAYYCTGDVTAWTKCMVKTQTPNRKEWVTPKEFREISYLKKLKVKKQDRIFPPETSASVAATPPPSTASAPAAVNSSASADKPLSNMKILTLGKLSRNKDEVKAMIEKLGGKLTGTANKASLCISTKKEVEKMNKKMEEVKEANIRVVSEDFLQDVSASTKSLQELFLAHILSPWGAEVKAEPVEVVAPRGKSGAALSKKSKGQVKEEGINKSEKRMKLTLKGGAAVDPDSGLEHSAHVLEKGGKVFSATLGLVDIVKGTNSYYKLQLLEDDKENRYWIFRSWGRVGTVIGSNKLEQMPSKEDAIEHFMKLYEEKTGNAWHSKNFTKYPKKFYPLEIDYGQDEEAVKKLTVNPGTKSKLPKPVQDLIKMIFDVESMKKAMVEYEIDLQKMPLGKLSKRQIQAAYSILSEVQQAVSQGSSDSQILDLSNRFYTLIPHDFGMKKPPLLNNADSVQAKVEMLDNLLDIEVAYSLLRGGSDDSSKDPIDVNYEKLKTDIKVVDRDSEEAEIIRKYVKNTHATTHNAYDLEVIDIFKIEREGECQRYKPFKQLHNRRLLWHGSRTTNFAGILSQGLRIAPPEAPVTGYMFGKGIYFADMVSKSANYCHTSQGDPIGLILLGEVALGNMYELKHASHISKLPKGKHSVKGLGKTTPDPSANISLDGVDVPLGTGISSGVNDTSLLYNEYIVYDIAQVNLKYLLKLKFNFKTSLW

SMILES: O=C(c1cc(Cc2n[nH]c(=O)c3ccccc23)ccc1F)N1CCN(C(=O)C2CC2)CC1 [OLAPARIB]
- inhibition (SW1990 [1]): inactive
- Activity (Mus musculus [2]): inactive
- inhibition (SW1990 [3]): inactive
- inhibition [4]: inactive
- Activity (Mus musculus [5]): inactive
- IC50 (SW1990 [6]): 5.73 µM
- Activity (SW1990 [7]): inactive
- inhibition (SW1990 [8]): inactive
- Activity (SW1990 [9]): inactive
- Activity (SW1990 [10]): inactive
- Activity (Mus musculus [11]): inactive
- Activity (Mus musculus [12]): inactive
- inhibition (SW1990 [13]): inactive
- Activity (Mus musculus [14]): inactive
- Activity (Mus musculus [15]): inactive
- Activity (SW1990 [16]): inactive
- IC50 (MDA-MB-231): 8.48 µM
- Activity (Mus musculus [17]): Non-Toxic
- Activity (Mus musculus [18]): inactive
- Activity (Mus musculus [19]): inactive
- inhibition (SW1990 [20]): inactive
- Activity (Mus musculus [21]): Non-Toxic
- Activity (Mus musculus [22]): Non-Toxic
- IC50 (CFPAC-1): 13.7 µM
- Activity (SW1990 [23]): inactive
- Activity (Mus musculus [24]): Non-Toxic
- Activity (SW1990 [25]): Active
- Activity (SW1990 [26]): inactive
- Activity (Mus musculus [27]): Non-Toxic
- Activity (Mus musculus [28]): Non-Toxic
- Activity (Mus musculus [29]): inactive
- Activity (Mus musculus [30]): inactive
- inhibition [31]: inactive
- Activity (SW1990 [32]): inactive
- Activity (Mus musculus [33]): inactive
- Activity (Mus musculus [34]): inactive
- Activity (SW1990 [35]): inactive
- Activity (SW1990 [36]): inactive
- IC50 (CAPAN-1): 8.42 µM

SMILES: COc1cc(-c2nc3c(C(N)=O)cccc3[nH]2)ccc1N(C)c1ncc2c(n1)N(C1CCCC1)[C@H](C)C(=O)N2C
- IC50 (SW1990 [6]): 1.53 µM
- IC50 (MDA-MB-231): 0.46 µM
- IC50 [37]: 0.202 µM
- IC50 [38]: 0.025 µM

SMILES: CC[C@@H]1C(=O)N(C)c2cnc(Nc3ccc(-c4nc5c(C(N)=O)cccc5[nH]4)cc3OC)nc2N1Cc1ccc(C)s1
- IC50 (SW1990 [6]): 3.74 µM
- IC50 (MDA-MB-231): 1.25 µM
- inhibition [39]: 52%
- IC50 [38]: 0.338 µM

SMILES: CC[C@@H]1C(=O)N(C)c2cnc(Nc3ccc(C(C)c4nc5c(C(N)=O)cccc5[nH]4)cc3OC)nc2N1C1CCCC1 (stereo partly specified)
- inhibition [39]: 74%
- IC50 [38]: 0.236 µM

SMILES: COc1cc(-c2nc3c(C(N)=O)cccc3[nH]2)ccc1Nc1ncc2c(n1)N(C1CCCC1)[C@H](C)C(=O)N2C
- IC50 (SW1990 [6]): 1.62 µM
- IC50 (MDA-MB-231): 0.47 µM
- IC50 [37]: 0.25 µM
- IC50 [38]: 0.127 µM

SMILES: CC[C@@H]1C(=O)N(C)c2cnc(Nc3ccc(C(=O)NCc4nc5c(C(N)=O)cccc5[nH]4)cc3OC)nc2N1C1CCCC1
- IC50 [37]: 0.374 µM
- IC50 [38]: 0.341 µM

SMILES: CC[C@@H]1C(=O)N(C)c2cnc(Nc3cccc(-c4nc5c(C(N)=O)cccc5[nH]4)c3)nc2N1C1CCCC1
- IC50 [37]: 0.693 µM
- IC50 [38]: 0.155 µM

SMILES: CC[C@@H]1C(=O)N(C)c2cnc(Nc3ccc(CC(=O)NCc4nc5c(C(N)=O)cccc5[nH]4)cc3OC)nc2N1C1CCCC1
- IC50 [37]: 0.276 µM
- IC50 [38]: 0.498 µM

SMILES: CC[C@@H]1C(=O)N(C)c2cnc(Nc3ccc(-c4nc5c(C(N)=O)cccc5[nH]4)cc3OC(C)C)nc2N1C1CCCC1
- inhibition [39]: 75%
- IC50 [38]: 2.05 µM
